Non-standard residues stand in square brackets, D forms with d. Residues, ends and D or L forms follow the SMILES beside them. Nle = CCCC[C@H](N)C(=O)O
What was measured:
CFP-APO = assay: Vif-mediated depletion of CFP-APO with proteasome inhibition (immuno-blot, confocal microscopy); type: cell-based, human; conditions: for CFP-APO levels in the absence of Vif: 293T cells, pNL-A1Δvif
Protocol: (§1) 293T cells were maintained in a humidified incubator (5% CO2) at 37° C. in Dulbecco's modified Eagle's medium (DMEM; Invitrogen) supplemented with 10% fetal bovine serum, 100 units/ml penicillin and 100 μg/ml streptomycin (Invitrogen). Qiagen-purified plasmid DNA (Qiagen, Valencia, Calif.) was transfected into 293T cells using Lipofectaminem 2000 lipofection agent (Invitrogen). For Western blot and immunoprecipitation experiments, 293T cells were transfected in either 6 or 12 well plates when the cells were ˜60% confluent. The amount of vector used and the molar ratio of vector for co-transfection experiments are described in the Results and figure legends. When necessary, final DNA amounts were made equal by the addition of pGEM (Promega). For live imaging and immuno-localization, 293T cells were seeded into poly-d-lysine coated 35 mm glass bottom culture dishes and transfected when the cells were ˜50% confluent. For proteasome inhibition studies, culture media containing 100 μM of N-Acetyl-Leu-Leu-Nle-CHO (ALLN, Calbiochem, La Jolla, Calif.) or the equivalent volume of DMSO was added to cells 12 hours prior to harvesting or imaging 36 hours post-transfection.
(§2) The level of Vif-mediated depletion of APOBEC3G was further determined over a broad range of Vif (pNL-A1):APOBEC3G (pCFP-APO) vector ratios ranging from 1:1 to 1:0.0625, where 1 refers to 130 fmoles of vector. The level of depletion was determined by comparing the steady-state levels of CFP-APO when co-expressed with Vif to the equivalent Δvif control (pNL-A1Δvif). […]
To prepare total protein lysates, each well of a 6- or 12-well plate was washed once in phosphate buffered saline (PBS, Invitrogen) and then lysed in either 400 or 200 μl, respectively, of Mammalian Protein Extraction Reagent (M-PER, Pierce, Rockford, Ill.) supplemented with 0.5% (v/v) Triton-X 100 (Pierce), 150 mM NaCl, 5 mM EDTA, and a 1/100 (v/v) dilution of a protease inhibitor cocktail for mammalian tissue for 30 minutes at 4° C. with gentle rotation. […] Protein concentration was determined by Dc protein assay (Bio-Rad, Hercules, Calif.). […]

Vif = assay: Steady-state levels of Vif with proteasome inhibition (immuno-blot); type: cell-based, HIV-1; conditions: 293T cells, presence or absence of CFP-APO, 100 μM ALLN 12 hours
Protocol: as §1, with “For proteasome inhibition studies, culture media containing 100 μM of N-Acetyl-Leu-Leu-Nle-CHO (ALLN, Calbiochem, La Jolla, Calif.) or the equivalent volume of DMSO was added to cells 12 hours prior to harvesting or imaging 36 hours post-transfection.” left out
as §2

CCCC[C@@H](C=O)NC(=O)[C@H](CC(C)C)NC(=O)[C@H](CC(C)C)NC(C)=O [ALLN, N-Acetyl-Leu-Leu-Nle-CHO] (Ac-Leu-Leu-[Nle]-aldehyde)
CFP-APO levels by confocal microscopy (CFP-APO; 293T cells expressing Vif, pNL-A1:pCFP-APO 1:0.25, proteasome inhibition): elevated | CFP-APO levels in the absence of Vif (CFP-APO; all ratios except 1:0.0625, 100 μM ALLN 12 hours): not significantly affected | CFP-APO levels in the absence of Vif (CFP-APO; lowest pCFP-APO input (1:0.0625 ratio), 100 μM ALLN 12 hours): modest reduction in expression | Steady-state levels of Vif (Vif): elevated the steady-state levels of Vif

Source: patent US20050123906A1, “Protein modulation” (priority 2003, published 2005)
